One data set concerns the target T1, PREP (Homo sapiens, UniProt P48147).
T1 sequence (P48147 1-710): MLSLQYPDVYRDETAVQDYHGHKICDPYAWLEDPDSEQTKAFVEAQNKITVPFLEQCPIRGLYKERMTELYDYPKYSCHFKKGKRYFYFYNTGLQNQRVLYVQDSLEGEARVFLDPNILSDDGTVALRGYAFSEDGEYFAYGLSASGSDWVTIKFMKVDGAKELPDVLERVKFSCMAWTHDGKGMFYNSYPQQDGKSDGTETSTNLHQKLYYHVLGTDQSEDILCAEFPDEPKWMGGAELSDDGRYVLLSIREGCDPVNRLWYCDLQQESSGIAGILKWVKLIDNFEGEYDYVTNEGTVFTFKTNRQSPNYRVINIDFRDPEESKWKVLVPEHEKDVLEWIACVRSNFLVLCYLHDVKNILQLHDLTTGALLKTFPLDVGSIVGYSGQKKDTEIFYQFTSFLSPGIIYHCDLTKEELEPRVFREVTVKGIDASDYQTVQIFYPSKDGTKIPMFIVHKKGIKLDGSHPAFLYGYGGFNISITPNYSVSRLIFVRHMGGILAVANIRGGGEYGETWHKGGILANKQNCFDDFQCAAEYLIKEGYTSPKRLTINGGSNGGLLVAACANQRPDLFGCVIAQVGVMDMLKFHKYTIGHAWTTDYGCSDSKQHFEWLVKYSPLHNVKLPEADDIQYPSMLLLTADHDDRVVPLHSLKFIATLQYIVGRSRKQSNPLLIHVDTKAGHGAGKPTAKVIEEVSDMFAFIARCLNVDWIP
Nature of the data set: In vitro PREP inhibition assay. The format is biochemical. The procedure: (§1) FIG. 6 depicts a table outlining various in vitro and in vivo assay results for DPP inhibitors. CLogP values were calculated using ChemDraw Ultra version 11.0. […] The methods of biological testing used are described in International Patent Application PCT/US06/047853, published as WO/2007/100374, which claims priority to U.S. […] These methods are herein incorporated in their entirety by reference. FIGS. 6-9 depict the results from various biological assays. The CLogP values in these figures were calculated using ChemDraw Ultra version 11.0.

A further data set concerns the target T2, FAP (Homo sapiens, UniProt Q12884).
T2 sequence (Q12884 1-760): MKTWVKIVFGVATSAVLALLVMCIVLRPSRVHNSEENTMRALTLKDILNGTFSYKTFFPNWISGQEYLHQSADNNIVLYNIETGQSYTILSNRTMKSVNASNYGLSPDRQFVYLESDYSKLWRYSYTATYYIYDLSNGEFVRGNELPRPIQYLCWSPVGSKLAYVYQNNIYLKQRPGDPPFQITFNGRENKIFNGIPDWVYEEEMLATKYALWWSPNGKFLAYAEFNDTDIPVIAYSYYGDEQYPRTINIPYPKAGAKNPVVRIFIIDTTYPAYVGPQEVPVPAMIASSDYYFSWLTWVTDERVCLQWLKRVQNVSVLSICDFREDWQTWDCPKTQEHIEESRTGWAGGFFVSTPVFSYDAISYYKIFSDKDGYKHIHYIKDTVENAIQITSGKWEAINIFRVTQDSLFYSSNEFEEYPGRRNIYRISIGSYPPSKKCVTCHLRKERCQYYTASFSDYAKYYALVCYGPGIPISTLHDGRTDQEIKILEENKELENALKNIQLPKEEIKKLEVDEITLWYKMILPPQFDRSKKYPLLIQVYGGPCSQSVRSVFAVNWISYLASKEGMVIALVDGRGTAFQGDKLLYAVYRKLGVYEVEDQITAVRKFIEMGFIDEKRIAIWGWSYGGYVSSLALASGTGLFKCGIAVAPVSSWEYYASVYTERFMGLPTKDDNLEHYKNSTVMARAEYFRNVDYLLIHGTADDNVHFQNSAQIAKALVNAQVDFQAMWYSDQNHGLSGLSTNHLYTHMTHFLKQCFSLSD
Nature of the data set: In vitro FAP inhibition assay (GP-AMC substrate). It is filed as biochemical. As to the method: as §1

For a further data set, the system named is Sprague-Dawley (SD) rats. The conditions noted are these: rat, in vivo, 300 mg/kg.
For a further data set, the target named is DPP IV (Homo sapiens, UniProt P27487). Put plainly: In vitro DPP IV inhibition assay (IC50, GP-AMC substrate). It is filed as biochemical. The note with it: potency ratio versus oxy-analog compound 11. The procedure:
(§2) FIG. 6 depicts a table outlining various in vitro and in vivo assay results for DPP inhibitors. CLogP values were calculated using ChemDraw Ultra version 11.0. […] All except PREP used the same substrate (GP-AMC), but different concentrations (10 μM for DPP IV, 25 μM for DPP8 and DPP9, and 50 μM for FAP).
(§3) The methods of biological testing used are described in International Patent Application PCT/US06/047853, published as WO/2007/100374, which claims priority to U.S. Provisional Patent Application No. 60/752,017. These methods are herein incorporated in their entirety by reference.
(§4) FIGS. 6-9 depict the results from various biological assays. The CLogP values in these figures were calculated using ChemDraw Ultra version 11.0.

Data set [1] concerns the target T3, DPP9 (Homo sapiens, UniProt Q86TI2). Nature of the data set: Intracellular IC50 (IC-IC50), intracellular potency against DPP9. The conditions noted are these: compounds preincubated at pH 2.0 for 4 h. It is filed as cell-based.
Description: It is important to note that IC-IC50 is not a measure of cell permeability. Like IC50, it is a composite of factors, including cell permeability, potency against DPP9, rate and equilibrium of the intramolecular cyclization reaction, and inhibitor stability, both intrinsic and intracellular.
For data set [2], the target named is T3, DPP9. Put plainly: In vitro DPP9 inhibition assay (IC50, GP-AMC substrate). The format is biochemical. The note with it: DPP IV versus DPP9. The procedure:
as §2, §3, §4

The next data set deals with DPP8 (Homo sapiens, UniProt Q6V1X1). Nature of the data set: In vitro DPP8 inhibition assay (IC50, GP-AMC substrate). It is filed as biochemical. The conditions noted are these: DPP IV versus DPP8. As to the method:
as §2, §3, §4

In general, IC50 refers to the concentration needed to halve the response being measured. A lower IC50 goes with inhibition by little substance.

T3 sequence (Q86TI2 whole entry, species assumed): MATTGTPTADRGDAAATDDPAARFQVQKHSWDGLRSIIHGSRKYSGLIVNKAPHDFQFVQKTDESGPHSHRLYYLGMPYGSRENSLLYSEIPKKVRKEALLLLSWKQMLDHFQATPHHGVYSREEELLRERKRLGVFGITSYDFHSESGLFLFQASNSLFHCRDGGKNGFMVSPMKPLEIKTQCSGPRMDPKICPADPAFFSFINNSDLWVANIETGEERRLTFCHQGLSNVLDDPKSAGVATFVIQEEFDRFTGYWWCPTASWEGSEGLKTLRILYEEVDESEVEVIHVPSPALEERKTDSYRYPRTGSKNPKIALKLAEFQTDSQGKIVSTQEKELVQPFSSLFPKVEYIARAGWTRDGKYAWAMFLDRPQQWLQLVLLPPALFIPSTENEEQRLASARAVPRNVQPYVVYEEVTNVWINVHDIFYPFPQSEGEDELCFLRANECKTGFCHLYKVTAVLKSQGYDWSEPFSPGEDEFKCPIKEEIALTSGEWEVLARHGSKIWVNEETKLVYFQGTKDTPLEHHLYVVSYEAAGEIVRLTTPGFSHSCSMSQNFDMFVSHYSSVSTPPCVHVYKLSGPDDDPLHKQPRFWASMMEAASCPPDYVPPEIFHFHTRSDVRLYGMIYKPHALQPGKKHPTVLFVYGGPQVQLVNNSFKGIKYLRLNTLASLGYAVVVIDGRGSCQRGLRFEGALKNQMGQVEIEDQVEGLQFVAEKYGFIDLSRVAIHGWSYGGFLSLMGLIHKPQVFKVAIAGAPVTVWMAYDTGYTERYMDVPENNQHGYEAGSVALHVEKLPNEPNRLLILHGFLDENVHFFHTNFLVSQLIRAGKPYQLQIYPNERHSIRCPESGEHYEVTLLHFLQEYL
DPP8, sequence (Q6V1X1 whole entry, species assumed): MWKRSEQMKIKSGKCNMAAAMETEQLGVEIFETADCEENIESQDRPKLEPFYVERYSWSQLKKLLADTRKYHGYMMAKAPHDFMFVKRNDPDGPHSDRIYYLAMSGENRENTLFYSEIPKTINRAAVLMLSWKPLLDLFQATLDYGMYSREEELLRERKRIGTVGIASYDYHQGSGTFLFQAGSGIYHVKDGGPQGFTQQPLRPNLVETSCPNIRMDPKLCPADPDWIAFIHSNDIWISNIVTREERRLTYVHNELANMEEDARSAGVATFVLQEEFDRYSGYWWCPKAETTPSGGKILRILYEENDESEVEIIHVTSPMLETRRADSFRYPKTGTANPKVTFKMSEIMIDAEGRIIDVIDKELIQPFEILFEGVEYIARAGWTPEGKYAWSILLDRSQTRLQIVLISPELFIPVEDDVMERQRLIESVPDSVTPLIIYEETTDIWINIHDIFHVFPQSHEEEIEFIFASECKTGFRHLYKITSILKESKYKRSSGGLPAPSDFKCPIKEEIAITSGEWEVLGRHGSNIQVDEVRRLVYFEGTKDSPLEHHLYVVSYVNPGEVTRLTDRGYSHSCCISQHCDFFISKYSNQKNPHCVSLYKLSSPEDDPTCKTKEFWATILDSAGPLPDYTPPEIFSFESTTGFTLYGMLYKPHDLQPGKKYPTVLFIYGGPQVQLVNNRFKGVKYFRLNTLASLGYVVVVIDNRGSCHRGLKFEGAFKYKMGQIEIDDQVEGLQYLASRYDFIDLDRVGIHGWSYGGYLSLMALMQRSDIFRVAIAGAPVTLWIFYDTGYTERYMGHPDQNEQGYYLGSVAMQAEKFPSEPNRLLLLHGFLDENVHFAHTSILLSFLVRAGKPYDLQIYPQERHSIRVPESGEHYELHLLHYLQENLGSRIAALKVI
DPP IV, sequence (P27487 whole entry, species assumed): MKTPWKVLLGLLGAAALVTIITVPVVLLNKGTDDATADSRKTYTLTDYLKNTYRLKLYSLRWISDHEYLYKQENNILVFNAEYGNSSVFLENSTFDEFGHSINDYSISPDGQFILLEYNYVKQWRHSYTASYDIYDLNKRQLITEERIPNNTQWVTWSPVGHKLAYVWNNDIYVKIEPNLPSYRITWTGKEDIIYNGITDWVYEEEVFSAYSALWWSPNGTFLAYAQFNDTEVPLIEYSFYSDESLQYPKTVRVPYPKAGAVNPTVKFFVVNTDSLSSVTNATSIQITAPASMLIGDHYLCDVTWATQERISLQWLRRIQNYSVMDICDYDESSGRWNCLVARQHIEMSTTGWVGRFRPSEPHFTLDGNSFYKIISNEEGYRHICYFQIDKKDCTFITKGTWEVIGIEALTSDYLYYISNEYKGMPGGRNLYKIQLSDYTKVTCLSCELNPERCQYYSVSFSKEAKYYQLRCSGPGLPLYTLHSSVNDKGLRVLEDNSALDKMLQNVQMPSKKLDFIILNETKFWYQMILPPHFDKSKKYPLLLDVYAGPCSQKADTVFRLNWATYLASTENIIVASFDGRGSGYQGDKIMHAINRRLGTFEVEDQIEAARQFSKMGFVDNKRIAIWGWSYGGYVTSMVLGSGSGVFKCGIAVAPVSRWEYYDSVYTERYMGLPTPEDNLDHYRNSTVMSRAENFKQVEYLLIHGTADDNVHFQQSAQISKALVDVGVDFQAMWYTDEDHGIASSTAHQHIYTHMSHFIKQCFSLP
Protocol for Sprague-Dawley (SD) rats: In an experiment, 13 male SD rats were given 300 mg/kg of compound 5.

For the molecule `CN(CB(O)O)C(=S)[C@@H](N)CCC(=O)O.Cl` [Compound 5, Glu-boroSar[thioxo amide]hydrochloride], the “selectivity against PREP in vitro” value on PREP is reported as “good selectivity”. For the same molecule, on FAP, the “selectivity against FAP in vitro” value is “good selectivity”. In addition, in the data set on Sprague-Dawley (SD) rats, the “signs of toxicity after 24 h” value is recorded as “no sign of toxicity”. In addition, the “more potent inhibitor of DPP IV than compound 11” value at DPP IV is reported as “about 66 fold”. In addition, half-maximal inhibition at DPP9 [1] (IC50) was put at 828 µM. At DPP9 [2], the “more potent for DPP IV than for DPP9 (selectivity)” value is 6,000 ×. For the same molecule, the “more potent for DPP IV than for DPP8 (selectivity)” value on DPP8 is 13,000 ×.
